Experimental data published in publication PMC12394658, “Discovery of Zharp1-163 as a dual inhibitor of ferroptosis and necroptosis for the treatment of inflammatory disorders and kidney injury” (Cell Death Discovery, 2025).

What was measured:
Test in all cases: biochemical
Parameters in all cases: Kinase selectivity panel of 81 human kinases, ADP-Glo or HTRF, per cent inhibition at 1 uM
DYRK1B = DYRK1B (Homo sapiens, UniProt Q9Y463)
In short: (§1)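 Kinase-panel selectivity profiling of 81 kinases with compound at 1000 nM.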

SRC = SRC (Homo sapiens, UniProt P12931)
In short: as §1

Erk2 = target: T1, Erk2 (Homo sapiens, UniProt P28482)
T1 construct: gene MAPK1
In short: as §1

CK2α1/β = target: T2, CK2α1/β (Homo sapiens, UniProt P68400)
T2 construct: gene CSNK2A1
In short: as §1

FGFR1 = FGFR1 (Homo sapiens, UniProt P11362)
Sequence of FGFR1 (P11362 whole entry): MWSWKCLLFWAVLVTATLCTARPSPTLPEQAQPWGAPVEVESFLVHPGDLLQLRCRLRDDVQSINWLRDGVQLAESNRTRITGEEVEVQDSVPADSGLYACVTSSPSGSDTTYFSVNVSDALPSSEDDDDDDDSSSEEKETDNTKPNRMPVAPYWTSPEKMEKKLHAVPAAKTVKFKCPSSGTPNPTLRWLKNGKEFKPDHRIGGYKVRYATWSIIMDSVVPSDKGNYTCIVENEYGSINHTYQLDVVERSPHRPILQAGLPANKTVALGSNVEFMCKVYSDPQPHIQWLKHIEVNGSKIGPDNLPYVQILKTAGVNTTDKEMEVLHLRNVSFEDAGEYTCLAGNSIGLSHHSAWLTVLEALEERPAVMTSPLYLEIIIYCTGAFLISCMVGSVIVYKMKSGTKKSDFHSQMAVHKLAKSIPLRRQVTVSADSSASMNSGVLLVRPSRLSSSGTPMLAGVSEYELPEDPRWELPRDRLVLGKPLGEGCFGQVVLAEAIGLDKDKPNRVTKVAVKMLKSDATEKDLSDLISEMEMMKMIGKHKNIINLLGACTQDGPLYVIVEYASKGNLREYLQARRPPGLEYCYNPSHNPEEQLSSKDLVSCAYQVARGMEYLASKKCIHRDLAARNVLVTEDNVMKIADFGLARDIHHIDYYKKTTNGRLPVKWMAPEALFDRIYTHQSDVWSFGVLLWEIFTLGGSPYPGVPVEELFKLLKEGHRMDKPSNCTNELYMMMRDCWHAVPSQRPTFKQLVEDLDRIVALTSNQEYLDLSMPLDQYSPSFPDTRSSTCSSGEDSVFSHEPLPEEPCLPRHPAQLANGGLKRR
In short: as §1

CK1γ2 = target: T3, CK1γ2 (Homo sapiens, UniProt P78368)
T3 construct: gene CSNK1G2
T3 sequence (P78368 whole entry): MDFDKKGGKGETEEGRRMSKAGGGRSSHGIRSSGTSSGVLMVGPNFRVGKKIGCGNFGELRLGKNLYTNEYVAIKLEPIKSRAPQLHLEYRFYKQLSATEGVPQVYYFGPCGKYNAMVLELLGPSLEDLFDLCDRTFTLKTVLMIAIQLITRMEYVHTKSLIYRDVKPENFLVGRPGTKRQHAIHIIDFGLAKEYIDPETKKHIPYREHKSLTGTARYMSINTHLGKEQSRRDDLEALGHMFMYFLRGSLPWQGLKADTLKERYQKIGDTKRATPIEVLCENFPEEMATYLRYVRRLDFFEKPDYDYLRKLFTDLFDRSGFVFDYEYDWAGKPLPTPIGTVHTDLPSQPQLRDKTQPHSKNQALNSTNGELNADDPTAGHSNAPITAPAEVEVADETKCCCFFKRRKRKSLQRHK
In short: as §1

RIPK2 = RIPK2 (Homo sapiens, UniProt O43353)
Sequence of RIPK2 (O43353 whole entry): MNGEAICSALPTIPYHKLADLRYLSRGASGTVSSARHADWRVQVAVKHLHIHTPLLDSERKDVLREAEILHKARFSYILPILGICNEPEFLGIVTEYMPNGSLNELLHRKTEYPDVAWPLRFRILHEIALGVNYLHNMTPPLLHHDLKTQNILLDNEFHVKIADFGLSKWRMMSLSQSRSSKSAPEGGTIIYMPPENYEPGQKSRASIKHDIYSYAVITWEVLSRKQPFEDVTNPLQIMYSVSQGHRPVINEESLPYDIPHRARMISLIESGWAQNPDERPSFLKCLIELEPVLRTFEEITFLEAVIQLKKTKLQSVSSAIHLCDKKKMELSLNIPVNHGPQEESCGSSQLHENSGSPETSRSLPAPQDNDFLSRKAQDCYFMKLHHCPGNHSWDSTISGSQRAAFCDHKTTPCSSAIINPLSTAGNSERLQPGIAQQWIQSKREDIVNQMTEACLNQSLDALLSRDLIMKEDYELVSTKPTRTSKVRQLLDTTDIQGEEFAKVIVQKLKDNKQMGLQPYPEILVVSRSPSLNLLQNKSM
In short: as §1

LCK = LCK (Homo sapiens, UniProt P06239)
In short: as §1

EPHB4 = EPHB4 (Homo sapiens, UniProt P54760)
Sequence of EPHB4 (P54760 whole entry): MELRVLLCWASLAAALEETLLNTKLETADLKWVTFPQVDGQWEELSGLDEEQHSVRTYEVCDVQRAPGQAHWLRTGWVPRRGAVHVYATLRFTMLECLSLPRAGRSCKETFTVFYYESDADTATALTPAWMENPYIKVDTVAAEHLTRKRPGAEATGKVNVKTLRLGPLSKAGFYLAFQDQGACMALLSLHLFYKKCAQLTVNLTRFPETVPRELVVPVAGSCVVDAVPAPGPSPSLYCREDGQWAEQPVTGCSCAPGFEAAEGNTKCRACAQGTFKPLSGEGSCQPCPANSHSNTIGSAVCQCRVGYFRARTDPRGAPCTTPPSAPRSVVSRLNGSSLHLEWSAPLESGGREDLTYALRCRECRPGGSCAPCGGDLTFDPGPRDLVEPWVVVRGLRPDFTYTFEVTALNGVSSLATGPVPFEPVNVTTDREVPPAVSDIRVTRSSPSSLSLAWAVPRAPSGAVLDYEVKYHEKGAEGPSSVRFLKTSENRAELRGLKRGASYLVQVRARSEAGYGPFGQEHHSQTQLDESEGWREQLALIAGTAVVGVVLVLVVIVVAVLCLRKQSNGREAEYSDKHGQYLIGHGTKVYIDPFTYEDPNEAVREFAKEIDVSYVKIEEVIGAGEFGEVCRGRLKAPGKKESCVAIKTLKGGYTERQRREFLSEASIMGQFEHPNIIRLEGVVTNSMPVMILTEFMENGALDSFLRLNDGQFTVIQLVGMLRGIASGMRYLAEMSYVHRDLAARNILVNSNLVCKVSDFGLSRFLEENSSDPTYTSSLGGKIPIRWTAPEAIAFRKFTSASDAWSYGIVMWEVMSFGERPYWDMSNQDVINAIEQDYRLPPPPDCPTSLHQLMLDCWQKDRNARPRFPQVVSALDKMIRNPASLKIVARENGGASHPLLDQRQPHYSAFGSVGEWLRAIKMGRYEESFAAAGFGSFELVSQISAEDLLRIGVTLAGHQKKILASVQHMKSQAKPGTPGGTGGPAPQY
In short: as §1

PKACα = target: T4, PKACα (Homo sapiens, UniProt P17612)
T4 construct: gene PRKACA
In short: as §1

ULK2 = ULK2 (Homo sapiens, UniProt Q8IYT8)
Sequence of ULK2 (Q8IYT8 whole entry): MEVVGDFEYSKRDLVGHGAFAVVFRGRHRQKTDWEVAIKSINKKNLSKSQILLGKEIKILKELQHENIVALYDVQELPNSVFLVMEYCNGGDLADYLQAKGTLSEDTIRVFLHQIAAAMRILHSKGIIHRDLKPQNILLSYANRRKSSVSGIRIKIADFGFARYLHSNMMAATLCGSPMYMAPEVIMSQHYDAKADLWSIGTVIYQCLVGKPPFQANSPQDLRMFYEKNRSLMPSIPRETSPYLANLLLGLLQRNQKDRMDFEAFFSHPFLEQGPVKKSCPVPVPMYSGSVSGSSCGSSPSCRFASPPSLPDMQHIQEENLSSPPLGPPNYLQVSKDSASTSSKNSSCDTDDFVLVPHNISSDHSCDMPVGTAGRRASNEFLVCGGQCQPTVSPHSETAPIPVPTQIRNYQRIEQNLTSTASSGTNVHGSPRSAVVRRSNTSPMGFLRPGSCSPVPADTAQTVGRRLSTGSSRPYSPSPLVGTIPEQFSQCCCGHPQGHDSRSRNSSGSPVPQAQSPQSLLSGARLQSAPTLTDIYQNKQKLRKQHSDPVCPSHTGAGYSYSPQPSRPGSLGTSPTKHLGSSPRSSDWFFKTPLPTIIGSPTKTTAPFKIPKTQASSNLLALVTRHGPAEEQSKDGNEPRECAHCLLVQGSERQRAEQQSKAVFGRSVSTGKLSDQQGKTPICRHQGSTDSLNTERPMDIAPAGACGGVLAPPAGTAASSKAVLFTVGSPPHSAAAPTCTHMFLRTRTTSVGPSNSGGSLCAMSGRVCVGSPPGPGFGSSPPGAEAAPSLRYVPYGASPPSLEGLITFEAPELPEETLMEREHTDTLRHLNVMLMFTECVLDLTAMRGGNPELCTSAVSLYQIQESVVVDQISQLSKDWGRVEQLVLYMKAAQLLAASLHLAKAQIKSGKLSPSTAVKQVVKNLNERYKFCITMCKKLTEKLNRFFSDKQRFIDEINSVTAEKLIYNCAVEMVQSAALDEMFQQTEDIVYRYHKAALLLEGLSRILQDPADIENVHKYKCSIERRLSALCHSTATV
In short: as §1

CK1γ3 = target: T5, CK1γ3 (Homo sapiens, UniProt Q9Y6M4)
T5 construct: gene CSNK1G3
T5 sequence (Q9Y6M4 whole entry): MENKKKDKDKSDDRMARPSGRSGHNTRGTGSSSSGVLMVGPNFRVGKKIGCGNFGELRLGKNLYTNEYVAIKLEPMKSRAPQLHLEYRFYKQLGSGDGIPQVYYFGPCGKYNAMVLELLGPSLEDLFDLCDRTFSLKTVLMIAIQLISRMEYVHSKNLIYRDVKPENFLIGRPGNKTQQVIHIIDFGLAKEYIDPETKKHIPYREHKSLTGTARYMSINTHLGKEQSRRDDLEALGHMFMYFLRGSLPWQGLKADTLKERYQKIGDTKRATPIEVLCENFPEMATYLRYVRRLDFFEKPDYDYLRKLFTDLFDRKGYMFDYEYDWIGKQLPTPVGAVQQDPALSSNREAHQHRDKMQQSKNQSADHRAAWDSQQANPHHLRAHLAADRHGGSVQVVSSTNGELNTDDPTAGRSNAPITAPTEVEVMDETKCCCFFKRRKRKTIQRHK
In short: as §1

Sequence of DYRK1B (Q9Y463 whole entry): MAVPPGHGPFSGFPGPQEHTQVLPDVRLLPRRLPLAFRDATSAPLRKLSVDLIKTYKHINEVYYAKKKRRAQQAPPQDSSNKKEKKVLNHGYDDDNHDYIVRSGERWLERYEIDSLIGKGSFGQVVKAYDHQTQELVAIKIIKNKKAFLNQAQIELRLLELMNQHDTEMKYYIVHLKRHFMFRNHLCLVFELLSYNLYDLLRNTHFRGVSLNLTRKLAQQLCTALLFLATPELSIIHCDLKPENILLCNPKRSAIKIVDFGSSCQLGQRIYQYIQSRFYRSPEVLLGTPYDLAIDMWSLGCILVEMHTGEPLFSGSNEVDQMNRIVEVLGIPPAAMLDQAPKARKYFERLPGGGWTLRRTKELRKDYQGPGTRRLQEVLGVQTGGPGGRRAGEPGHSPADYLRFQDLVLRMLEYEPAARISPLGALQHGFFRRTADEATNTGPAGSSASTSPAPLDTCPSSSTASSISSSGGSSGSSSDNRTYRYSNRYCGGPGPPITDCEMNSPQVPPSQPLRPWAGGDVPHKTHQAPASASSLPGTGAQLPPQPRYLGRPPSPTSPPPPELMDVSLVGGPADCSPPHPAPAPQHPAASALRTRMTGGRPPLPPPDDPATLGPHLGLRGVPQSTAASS

- inhibition at 1 µM (DYRK1B; replicate Data1): 16.6%
- inhibition at 1 µM (DYRK1B; replicate Data2): 9.23%
- inhibition at 1 µM (SRC; replicate Data1): -5.44%
- inhibition at 1 µM (SRC; replicate Data2): -0.43%
- inhibition at 1 µM (Erk2; replicate Data1): 17.9%
- inhibition at 1 µM (Erk2; replicate Data2): 10.3%
- inhibition at 1 µM (CK2α1/β; replicate Data1): -12.2%
- inhibition at 1 µM (CK2α1/β; replicate Data2): 5.04%
- inhibition at 1 µM (FGFR1; replicate Data1): 2.7%
- inhibition at 1 µM (FGFR1; replicate Data2): -0.57%
- inhibition at 1 µM (CK1γ2; replicate Data1): -3.03%
- inhibition at 1 µM (CK1γ2; replicate Data2): 8.14%
- inhibition at 1 µM (RIPK2; replicate Data1): -0.35%
- inhibition at 1 µM (RIPK2; replicate Data2): -3.05%
- inhibition at 1 µM (LCK; replicate Data1): -16.9%
- inhibition at 1 µM (LCK; replicate Data2): -10.8%
- inhibition at 1 µM (EPHB4; replicate Data1): 1.63%
- inhibition at 1 µM (EPHB4; replicate Data2): -4.43%
- inhibition at 1 µM (PKACα; replicate Data1): -0.64%
- inhibition at 1 µM (PKACα; replicate Data2): 3.94%
- inhibition at 1 µM (ULK2; replicate Data1): -5.94%
- inhibition at 1 µM (ULK2; replicate Data2): -8.78%
- inhibition at 1 µM (CK1γ3; replicate Data1): 14.1%
- inhibition at 1 µM (CK1γ3; replicate Data2): 20.6%
SMILES: Nc1cn2cc(-c3cnc4c(c3)N(C(=O)OC3CCCCC3)CCO4)ccc2n1 [Zharp1-163]
